Experimental data from US7399775B2, “β-amyloid protein production/secretion inhibitor” (Daiichi Pharmaceutical Co., Ltd., priority 2001, dated 2008).
Like-named read-outs stand apart in the source and are kept apart here.

Tests used:
[1] = system: β-amyloid protein (Aβ) production/secretion in E35 cells (H4 cells transfected with APP751); assay: Cell-based assay for inhibition of production or secretion of β-amyloid protein (sandwich ELISA of Aβ in culture medium); set-up: species or system human; conditions: 24 h with compound, Aβ in medium by sandwich ELISA, read-out: Activity (EC50 class, inhibition of Aβ secreted in culture medium)
Description: Cell-Based Assay for Screening of a Compound Which Inhibits Production or Secretion of β-Amyloid Protein
E35 cells which were established by transfecting APP751 gene which is a wild type human β-amyloid protein precursor into human glioma cells (H4 cells), were used to analyze inhibitory activity of a compound against β-amyloid production. The amount of β protein (Aβ) secreted in a culture medium was measured by the sandwich enzyme-linked imunosorbent assay.
E35 cells were seeded in Dulbecco's Modified Eagle's Medium containing 10% inactivated fetal bovine serum on 96-well plates and cultured in humidified air and 5% CO2 at 37° C. in a CO2 incubator. Twenty-four hours after seeding of the cells, a test compound dissolved in DMSO was added to the medium. The DMSO solution of the compound was prepared so as to give the final concentration of DMSO in the medium 0.05%. The cells were cultured for additional twenty-four hours, and then the cultured medium was collected. The medium collected was applied to a 96-well ELISA plate on which a monoclonal antibody 25-1, which recognized Aβ25-35, was immobilized, followed by the incubation at 4° C. for 16 to 20 hours. After washing with a phosphate buffer (pH 7.4), a biotinylated monoclonal antibody MA32-40, which recognizes Aβ1-8, was added to the plate, and the plate was incubated at 4° C. for 2 hours. Then alkaline phosphatase-conjugated streptavidin was added to the plate. Alkaline phosphatase activity was measured by a […] assay using BlouPhos (manufactured by KPL) as a substrate. An amount of Aβ in the medium was calculated using a calibration curve separately created. EC50 of the test compound was presented as the concentration that gives 50% inhibitory activity compared to the control cells which were not treated with the compound.

O=S(=O)(c1ccc(Cl)cc1)C(c1cc(F)ccc1F)c1cc(Cl)ncc1Cl (stereo not shown) [Example 345, 2,5-Dichloro-4-[(4-chlorophenylsulfonyl)-(2,5-difluorophenyl)methyl]pyridine 0.5 hydrate]
EC50 ([1]; Homo sapiens, 24 h): ≤ 0.05 µM

O=S(=O)(c1ccc(Cl)cc1)C1(c2cc(F)ccc2F)CCCCC1 [Example 33, 2-[1-[(4-Chlorophenyl)sulfonyl]cyclohexyl]-1,4-difluorobenzene]
EC50 ([1]; Homo sapiens, 24 h): ≤ 0.05 µM | melting point: 137 to 139 °C

CC(CCCS(C)(=O)=O)C(c1cc(F)ccc1F)S(=O)(=O)c1ccc(Cl)cc1 (stereo not shown) [Example 46, 2-[1-[(4-Chlorophenyl)sulfonyl]-2-methyl-5-(methylsulfonyl)pentyl]-1,4-difluorobenzene]
EC50 ([1]; Homo sapiens, 24 h): 0.05 to 0.5 µM | melting point: 115 to 117 °C

CNCCN(C)c1cc(C(c2cc(F)ccc2F)S(=O)(=O)c2ccc(Cl)cc2)c(Cl)cn1 (stereo not shown) [Example 397, 5-Chloro-4-[(4-chlorophenylsulfonyl)-(2,5-difluorophenyl)methyl]-2-[N-methyl-N-[2-(methylamino)ethyl]amino]pyridine]
EC50 ([1]; Homo sapiens, 24 h): ≤ 0.05 µM

O=S(=O)(c1ccc(Cl)cc1)C(c1cc(F)ccc1F)C1CCOCC1 (stereo not shown) [Example 287, 4-[[(4-Chlorophenyl)sulfonyl](2,5-difluorophenyl)methyl]tetrahydropyran]
EC50 ([1]; Homo sapiens, 24 h): 0.05 to 0.5 µM | melting point: 150 to 152 °C

COC(=O)OCc1ccc(C(c2cc(F)ccc2F)S(=O)(=O)c2ccc(Cl)cc2)nc1 (stereo not shown) [Example 372, [6-(4-Chlorophenylsulfonyl)(2,5-difluorophenyl)methylpyridin-3-yl]methyl Methyl Carbonate]
EC50 ([1]; Homo sapiens, 24 h): 0.05 to 0.5 µM

CC(CCCS(C)(=O)=O)C(c1cc(F)ccc1F)S(=O)(=O)c1ccc(Cl)cc1 (stereo not shown) [Example 47, 2-[1-[(4-Chlorophenyl)sulfonyl]-2-methyl-5-(methylsulfonyl)pentyl]-1,4-difluorobenzene]
EC50 [1]: ≤ 0.05 µM | melting point: 142 to 144 °C

Cc1cccnc1C(c1cc(F)ccc1F)S(=O)(=O)c1ccc(Cl)cc1 (stereo not shown) [Example 136, 2-[[(4-Chlorophenyl)sulfonyl]-(2,5-difluorophenyl)methyl]-3-methylpyridine]
EC50 ([1]; Homo sapiens, 24 h): ≤ 0.05 µM | melting point: 142 to 143 °C

O=S(=O)(c1ccc(Cl)cc1)C1(c2cc(F)ccc2F)CCOCC1 [Example 48, 4-[(4-Chlorophenyl)sulfonyl]-4-(2,5-difluorophenyl)tetrahydropyrane]
EC50 ([1]; Homo sapiens, 24 h): ≤ 0.05 µM | melting point: 157 to 160 °C

CC(CCC[S+](C)[O-])C(c1cc(F)ccc1F)S(=O)(=O)c1ccc(Cl)cc1 (stereo not shown) [Example 45, 2-[1-[(4-Chlorophenyl)sulfonyl]-2-methyl-5-(methylsulfinyl)pentyl]-1,4-difluorobenzene]
EC50 ([1]; Homo sapiens, 24 h): ≤ 0.05 µM | melting point: 107 to 112 °C

O=S(=O)(c1ccc(Cl)cc1)C(c1cc(F)ccc1F)c1cc(N2CCC(O)CC2)ncc1Cl (stereo not shown) [Example 404, 5-Chloro-4-[(4-chlorophenylsulfonyl)-(2,5-difluorophenyl)methyl]-2-(4′-hydroxypiperidin-1′-yl)pyridine]
EC50 ([1]; Homo sapiens, 24 h): ≤ 0.05 µM | melting point: 146 to 148 °C

CCCC(O)C(c1cc(F)ccc1F)S(=O)(=O)c1ccc(Cl)cc1 (stereo not shown) [Example 10, 1-[(4-Chlorophenyl)sulfonyl]-1-(2,5-difluorophenyl)-2-pentanol]
EC50 ([1]; Homo sapiens, 24 h): 0.05 to 0.5 µM | melting point: 134.5 to 135 °C

O=S(=O)(c1ccc(Cl)cc1)C(c1cc(F)ccc1F)C1CCSCC1 (stereo not shown) [Example 288, 4-[[(4-Chlorophenyl)sulfonyl](2,5-difluorophenyl)methyl]tetrahydrothiopyran]
EC50 ([1]; Homo sapiens, 24 h): 0.05 to 0.5 µM | melting point: 150 to 152 °C

O=S(=O)(c1ccc(Cl)cc1)C(CCCCO)c1cc(F)ccc1F (stereo not shown) [Example 29, 5-[(4-Chlorophenyl)sulfonyl]-5-(2,5-difluorophenyl)-1-pentanol]
EC50 ([1]; Homo sapiens, 24 h): 0.05 to 0.5 µM | melting point: 84 to 86 °C

CCCCC(c1cc(F)ccc1F)[S+]([O-])c1ccc(Cl)cc1 (single isomer, unassigned) [Example 2 (Isomer 2-B), 2-[1-[(4-Chlorophenyl)sulfinyl]pentyl]-1,4-difluorobenzene]
EC50 ([1]; Homo sapiens, 24 h): 0.5 to 5 µM

O=S(=O)(c1ccc(Cl)cc1)C(c1ccncc1)c1cc(F)ccc1F (stereo not shown) [Example 142, 4-[[(4-Chlorophenyl)sulfonyl]-(2,5-difluorophenyl)methyl]pyridine]
EC50 ([1]; Homo sapiens, 24 h): 0.05 to 0.5 µM | melting point: 126 to 127 °C

O=S(=O)(c1ccc(Cl)cc1)C(c1cc(F)ccc1F)c1cc(N2CCC[C@H]2CO)ncc1Cl (stereo partly shown) [Example 399]
EC50 ([1]; Homo sapiens, 24 h): ≤ 0.05 µM

NCC1CN(c2cc(C(c3cc(F)ccc3F)S(=O)(=O)c3ccc(Cl)cc3)c(Cl)cn2)CCO1 (stereo not shown) [Example 402, 2-Aminomethyl-4-[5-chloro-4-[(4-chlorophenylsulfonyl)-(2,5-difluorophenyl)methyl]pyridin-2-yl]morpholine]
EC50 ([1]; Homo sapiens, 24 h): ≤ 0.05 µM

CCCCC(c1cc(F)ccc1F)S(=O)(=O)c1ccc(Cl)cc1 (stereo not shown) [Example 3, 2-[1-[(4-Chlorophenyl)sulfonyl]pentyl]-1,4-difluorobenzene]
EC50 ([1]; Homo sapiens, 24 h): 0.05 to 0.5 µM

[O-][S+](c1ccc(Cl)cc1)C(c1cc(F)ccc1F)c1ccncc1Cl (stereo not shown) [Example 344, 3-Chloro-4-[(4-chlorophenylsulfinyl)-(2,5-difluorophenyl)methyl]pyridine]
EC50 ([1]; Homo sapiens, 24 h): ≤ 0.05 µM

CSCCCC(C)C(c1cc(F)ccc1F)S(=O)(=O)c1ccc(Cl)cc1 (single isomer, unassigned) [Example 43 (Isomer 43-A), 2-[1-[(4-Chlorophenyl)sulfonyl]-2-methyl-5-(methylthio)pentyl]-1,4-difluorobenzene]
EC50 ([1]; Homo sapiens, 24 h): 0.05 to 0.5 µM

CC(CCCCO)(c1cc(F)ccc1F)S(=O)(=O)c1ccc(Cl)cc1 (stereo not shown) [Example 17, 5-(4-Chlorophenylsulfonyl)-5-(2,5-difluorophenyl)-1-hexanol]
EC50 ([1]; Homo sapiens, 24 h): 0.5 to 5 µM

CS(=O)(=O)NCc1ccc(C(c2cc(F)ccc2F)S(=O)(=O)c2ccc(Cl)cc2)nc1 (stereo not shown) [Example 370, N-[[6-(4-Chlorophenylsulfonyl)(2,5-difluorophenyl)methylpyridin-3-yl]methyl]methanesulfonamide]
EC50 ([1]; Homo sapiens, 24 h): 0.05 to 0.5 µM

O=S(=O)(c1ccc(Cl)cc1)C(c1cc(F)ccc1F)c1cc(NCC[N+]2([O-])CCOCC2)ncc1Cl (stereo not shown) [Example 349, 4-[2-[5-Chloro-4-[(4-chlorophenylsulfonyl)-(2,5-difluorophenyl)methyl]pyridin-2-yl]aminoethyl]morpholine N-Oxide]
EC50 ([1]; Homo sapiens, 24 h): ≤ 0.05 µM

CSCCCC(C)C(c1cc(F)ccc1F)S(=O)(=O)c1ccc(Cl)cc1 (single isomer, unassigned) [Example 43 (Isomer 43-B), 2-[1-[(4-Chlorophenyl)sulfonyl]-2-methyl-5-(methylthio)pentyl]-1,4-difluorobenzene]
EC50 [1]: 0.05 to 0.5 µM

CS(=O)(=O)CCCCC(c1cc(F)ccc1F)S(=O)(=O)c1ccc(Cl)cc1 (stereo not shown) [Example 27 (Compound A), 2-[1-[(4-Chlorophenyl)sulfonyl]-5-(methylsulfonyl)pentyl]-1,4-difluorobenzene]
EC50 ([1]; Homo sapiens, 24 h): 0.05 to 0.5 µM

CN(C)S(=O)(=O)NCc1ccc(C(c2cc(F)ccc2F)S(=O)(=O)c2ccc(Cl)cc2)nc1 (stereo not shown) [Example 356, N-[[6-[(4-Chlorophenylsulfonyl)(2,5-difluorophenyl)methyl]pyridin-3-yl]methyl]-N′,N′-dimethylsulfamide]
melting point: 177 to 178 °C

CN(C)CCCC(c1ccncc1)S(=O)(=O)c1ccc(Cl)cc1 (stereo not shown) [Example 125, 4-(4-Chlorophenylsulfonyl)-N,N-dimethyl-4-(pyridin-4-yl)butylamine]
melting point: 78 to 80 °C
